Experimental data as given in patent US20100130585A1, “METHODS AND COMPOSITIONS FOR INVESTIGATION AND TREATMENT OF CANCER USING A G-PROTEIN COUPLED EICOSANOID RECEPTOR” (priority 2005, published 2010).
Entries after “also recorded” stand apart in the source; their conditions may differ.

Key:
5-LOX = test: Production of 5-oxoETE in PC3 cells measured by LC/MS; assay type: cell-based, human; settings: 10 micromolar, two hours at 37 degree C, control cells 11 picograms per ml
Protocol: We also measured the production of 5-oxoETE in PC3 prostate cancer cells by liquid chromatography/mass spectrometry “(LC/MS”) to assess whether prostate cancer cells constitutively produce 5-oxoETE as a survival factor. […] PC3 prostate cancer cells (2 million per plate) were plated in 6 ml RPMI medium in serum-free medium for 24 hours. On the next day cells were treated with 10 micromolar MK591 (a specific 5-LOX inhibitor) for two hours at 37 degree C., or cells were left untreated. The media were collected, eicosanoids extracted, and measured by LC/MS.

PC3 cells = test: Killing of PC3 cells by 5-LOX inhibitor; assay type: cell-based, human; settings: 10 micromolar
prostate cancer cells = settings: exogenous metabolite, previous work [7, 8, 17]; cited from earlier work

Structure (SMILES) | eicosanoids (5-oxoETE) in serum-free culture medium (5-LOX) | killing of PC3 cells (PC3 cells) | prevention of apoptosis triggered by 5-LOX inhibition (prostate cancer cells)
CC(C)(C)Sc1c(CC(C)(C)C(=O)O)n(Cc2ccc(Cl)cc2)c2ccc(OCc3ccc4ccccc4n3)cc12 [MK591] | 0 picograms per ml | kills PC3 cells | 
CCCCC/C=C\C/C=C\C/C=C\C=C\C(=O)CCCC(=O)O [5-oxoETE, 5-oxoeicosatetraenoic acid] |  |  | prevented; also recorded: more effective
CCCCC/C=C\C/C=C\C/C=C\C=C\[C@@H](O)CCCC(=O)O [5-HETE, 5(S)-hydroxyeicosatetraenoic acid] |  |  | prevented
